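Grown in 96-well plates, cells were treated for 48 hours with each compound at five concentrations. Insufficient inhibition: endpoint recorded as highest concentration tested. GI50: concentration for 50% inhibition of growth.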 The source made the active and inactive calls. Cut-off read from the data, not from the text of the source: active = GI50 up to about 1.1 µM and inactive = higher.
Key:
Test in all cases: NCI-60 cell line screen, 48 h
786-0 = tested on: 786-0
A498 = tested on: A498
A549 = tested on: A549
ACHN = tested on: ACHN
BT-549 = tested on: BT-549
CAKI-1 = tested on: CAKI-1
CCRF-CEM = tested on: CCRF-CEM
COLO 205 = tested on: COLO 205
DU-145 = tested on: DU-145
EKVX = tested on: EKVX
HCC 2998 = tested on: HCC 2998
HCT-116 = tested on: HCT-116
HL-60 = tested on: HL-60
HOP-62 = tested on: HOP-62
HOP-92 = tested on: HOP-92
HT-29 = tested on: HT-29
IGROV-1 = tested on: IGROV-1
K562 = tested on: K562
KM12 = tested on: KM12
LOX IMVI = tested on: LOX IMVI
M14 = tested on: M14
MCF7 = tested on: MCF7
MDA-MB-231 = tested on: MDA-MB-231
MDA-MB-435 = tested on: MDA-MB-435
MDA-N = tested on: MDA-N
MOLT-4 = tested on: MOLT-4
Malme-3M = tested on: Malme-3M
NCI-H226 = tested on: NCI-H226
NCI-H23 = tested on: NCI-H23
NCI-H522 = tested on: NCI-H522
NCI/ADR-RES = tested on: NCI/ADR-RES
OVCAR-3 = tested on: OVCAR-3
OVCAR-4 = tested on: OVCAR-4
OVCAR-5 = tested on: OVCAR-5
OVCAR-8 = tested on: OVCAR-8
PC-3 = tested on: PC-3
RPMI-8226 = tested on: RPMI-8226
RXF 393 = tested on: RXF 393
SF-295 = tested on: SF-295
SF-539 = tested on: SF-539
SK-MEL-28 = tested on: SK-MEL-28
SK-MEL-2 = tested on: SK-MEL-2
SK-MEL-5 = tested on: SK-MEL-5
SN12C = tested on: SN12C
SNB-19 = tested on: SNB-19
SNB-75 = tested on: SNB-75
SR = tested on: SR
SW-620 = tested on: SW-620
U-251 = tested on: U-251
UACC-257 = tested on: UACC-257
UACC-62 = tested on: UACC-62
UO-31 = tested on: UO-31
HCT-15 = tested on: HCT-15
NCI-H460 = tested on: NCI-H460
SF-268 = tested on: SF-268
SK-OV-3 = tested on: SK-OV-3
T47D = tested on: T47D
TK-10 = tested on: TK-10

SMILES: CSc1nc2c(c(=O)[nH]1)N=C(c1ccc([N+](=O)[O-])cc1)CC(c1ccccc1)N2 (centres undefined)
- GI50 (786-0): 34.7 µM (inactive)
- GI50 (A498): > 100 µM (inactive)
- GI50 (A549): 32.4 µM (inactive)
- GI50 (ACHN): 31.9 µM (inactive)
- GI50 (BT-549): 37.7 µM (inactive)
- GI50 (CAKI-1): 89.1 µM (inactive)
- GI50 (CCRF-CEM): 29.2 µM (inactive)
- GI50 (COLO 205): 55.1 µM (inactive)
- GI50 (DU-145): 86.1 µM (inactive)
- GI50 (EKVX): 36.4 µM (inactive)
- GI50 (HCC 2998): 22.5 µM (inactive)
- GI50 (HCT-116): 21.4 µM (inactive)
- GI50 (HL-60): 14.7 µM (inactive)
- GI50 (HOP-62): > 100 µM (inactive)
- GI50 (HOP-92): > 100 µM (inactive)
- GI50 (HT-29): 20.3 µM (inactive)
- GI50 (IGROV-1): 32.7 µM (inactive)
- GI50 (K562): 34.4 µM (inactive)
- GI50 (KM12): 17.9 µM (inactive)
- GI50 (LOX IMVI): 28.1 µM (inactive)
- GI50 (M14): 29.7 µM (inactive)
- GI50 (MCF7): 23.7 µM (inactive)
- GI50 (MDA-MB-231): 32.3 µM (inactive)
- GI50 (MDA-MB-435): 28.2 µM (inactive)
- GI50 (MDA-N): 38.2 µM (inactive)
- GI50 (MOLT-4): 31.3 µM (inactive)
- GI50 (Malme-3M): 55.5 µM (inactive)
- GI50 (NCI-H226): > 100 µM (inactive)
- GI50 (NCI-H23): 41.3 µM (inactive)
- GI50 (NCI-H522): 23.9 µM (inactive)
- GI50 (NCI/ADR-RES): 30 µM (inactive)
- GI50 (OVCAR-3): 55.6 µM (inactive)
- GI50 (OVCAR-4): 28.7 µM (inactive)
- GI50 (OVCAR-5): > 100 µM (inactive)
- GI50 (OVCAR-8): 34.5 µM (inactive)
- GI50 (PC-3): 49.4 µM (inactive)
- GI50 (RPMI-8226): 22 µM (inactive)
- GI50 (RXF 393): 23.2 µM (inactive)
- GI50 (SF-295): 51.1 µM (inactive)
- GI50 (SF-539): 29.2 µM (inactive)
- GI50 (SK-MEL-28): 22.7 µM (inactive)
- GI50 (SK-MEL-2): 28.3 µM (inactive)
- GI50 (SK-MEL-5): 20.9 µM (inactive)
- GI50 (SN12C): 54.8 µM (inactive)
- GI50 (SNB-19): > 100 µM (inactive)
- GI50 (SNB-75): 22.7 µM (inactive)
- GI50 (SR): 62.4 µM (inactive)
- GI50 (SW-620): 22.9 µM (inactive)
- GI50 (U-251): 33.6 µM (inactive)
- GI50 (UACC-257): 44.9 µM (inactive)
- GI50 (UACC-62): 27.4 µM (inactive)
- GI50 (UO-31): 50 µM (inactive)

SMILES: O=C(CCCCCCCCC(=O)NN1C(=O)/C(=C\c2ccc(O)c(O)c2)SC1c1c(O)ccc2ccccc12)NN1C(=O)C(=Cc2ccc(O)c(O)c2)SC1c1c(O)ccc2ccccc12 (centres undefined)
- GI50 (786-0): 3.46 µM (inactive)
- GI50 (A498): 22.8 µM (inactive)
- GI50 (A549): 6.95 µM (inactive)
- GI50 (ACHN): 4.8 µM (inactive)
- GI50 (BT-549): > 36.9 µM (inactive)
- GI50 (CAKI-1): 6.01 µM (inactive)
- GI50 (CCRF-CEM): 0.828 µM (active)
- GI50 (COLO 205): 20.4 µM (inactive)
- GI50 (DU-145): 8.28 µM (inactive)
- GI50 (EKVX): 7.59 µM (inactive)
- GI50 (HCC 2998): 24.5 µM (inactive)
- GI50 (HCT-116): 4.05 µM (inactive)
- GI50 (HCT-15): 4.66 µM
- GI50 (HOP-62): 2.45 µM (inactive)
- GI50 (HOP-92): 8.47 µM (inactive)
- GI50 (HT-29): 10.8 µM (inactive)
- GI50 (IGROV-1): 8.51 µM (inactive)
- GI50 (K562): 5.64 µM (inactive)
- GI50 (KM12): 23.9 µM (inactive)
- GI50 (LOX IMVI): 1.79 µM (inactive)
- GI50 (M14): 5.02 µM (inactive)
- GI50 (MCF7): 10.1 µM (inactive)
- GI50 (MDA-MB-231): > 23.8 µM (inactive)
- GI50 (MDA-MB-435): > 27.2 µM (inactive)
- GI50 (MDA-N): > 41.7 µM (inactive)
- GI50 (MOLT-4): 2.48 µM (inactive)
- GI50 (Malme-3M): 5.24 µM (inactive)
- GI50 (NCI-H226): 6.08 µM (inactive)
- GI50 (NCI-H23): 9.35 µM (inactive)
- GI50 (NCI-H460): 4.62 µM (inactive)
- GI50 (NCI-H522): 5.75 µM (inactive)
- GI50 (NCI/ADR-RES): 10.6 µM (inactive)
- GI50 (OVCAR-3): 2.25 µM (inactive)
- GI50 (OVCAR-4): 5.16 µM (inactive)
- GI50 (OVCAR-5): > 49.5 µM (inactive)
- GI50 (OVCAR-8): 4.49 µM (inactive)
- GI50 (PC-3): 10.9 µM (inactive)
- GI50 (RPMI-8226): 3.85 µM (inactive)
- GI50 (RXF 393): 10 µM (inactive)
- GI50 (SF-268): 6.4 µM (inactive)
- GI50 (SF-295): 3.86 µM (inactive)
- GI50 (SF-539): 8.45 µM (inactive)
- GI50 (SK-MEL-28): 10 µM (inactive)
- GI50 (SK-MEL-2): 5.97 µM (inactive)
- GI50 (SK-MEL-5): 1.93 µM (inactive)
- GI50 (SK-OV-3): 6.28 µM (inactive)
- GI50 (SN12C): 27.2 µM (inactive)
- GI50 (SNB-19): 22.6 µM (inactive)
- GI50 (SNB-75): 60.4 µM (inactive)
- GI50 (SR): 4.42 µM (inactive)
- GI50 (SW-620): 7.64 µM (inactive)
- GI50 (T47D): 11.3 µM (inactive)
- GI50 (TK-10): > 50.7 µM (inactive)
- GI50 (U-251): 12.5 µM (inactive)
- GI50 (UACC-257): 10.7 µM (inactive)
- GI50 (UACC-62): 4.74 µM (inactive)
- GI50 (UO-31): 3.39 µM (inactive)

SMILES: CCOP(=O)(OCC)/C(C#N)=C/c1cccn1Cc1ccccc1
- GI50 (786-0): 26.1 µM (inactive)
- GI50 (A498): 34.3 µM (inactive)
- GI50 (A549): 34.8 µM (inactive)
- GI50 (ACHN): 34.4 µM (inactive)
- GI50 (BT-549): 32.3 µM (inactive)
- GI50 (CAKI-1): 42.2 µM (inactive)
- GI50 (CCRF-CEM): 27.2 µM (inactive)
- GI50 (COLO 205): 21.5 µM (inactive)
- GI50 (DU-145): 43.2 µM (inactive)
- GI50 (EKVX): 38 µM (inactive)
- GI50 (HCC 2998): 35.3 µM (inactive)
- GI50 (HCT-116): 17 µM (inactive)
- GI50 (HCT-15): 29 µM
- GI50 (HOP-62): 40 µM (inactive)
- GI50 (HOP-92): 13.5 µM (inactive)
- GI50 (HT-29): 32.7 µM (inactive)
- GI50 (IGROV-1): 26.1 µM (inactive)
- GI50 (K562): 28.2 µM (inactive)
- GI50 (KM12): 26.9 µM (inactive)
- GI50 (LOX IMVI): 20.8 µM (inactive)
- GI50 (M14): 48.1 µM (inactive)
- GI50 (MCF7): 29.5 µM (inactive)
- GI50 (MDA-MB-231): 22.4 µM (inactive)
- GI50 (MDA-MB-435): 19.4 µM (inactive)
- GI50 (MDA-N): 29.9 µM (inactive)
- GI50 (MOLT-4): 17.2 µM (inactive)
- GI50 (Malme-3M): 32.3 µM (inactive)
- GI50 (NCI-H226): 20.7 µM (inactive)
- GI50 (NCI-H23): 31.3 µM (inactive)
- GI50 (NCI-H460): 31.9 µM (inactive)
- GI50 (NCI-H522): 23.8 µM (inactive)
- GI50 (NCI/ADR-RES): 26.2 µM (inactive)
- GI50 (OVCAR-3): 40.6 µM (inactive)
- GI50 (OVCAR-5): 83.2 µM (inactive)
- GI50 (OVCAR-8): 33.6 µM (inactive)
- GI50 (PC-3): 31.9 µM (inactive)
- GI50 (RXF 393): 30.8 µM (inactive)
- GI50 (SF-268): 43.5 µM (inactive)
- GI50 (SF-295): 29.6 µM (inactive)
- GI50 (SF-539): 18.5 µM (inactive)
- GI50 (SK-MEL-28): 19.7 µM (inactive)
- GI50 (SK-MEL-2): 21.3 µM (inactive)
- GI50 (SK-MEL-5): 16.1 µM (inactive)
- GI50 (SK-OV-3): 53 µM (inactive)
- GI50 (SN12C): 31.1 µM (inactive)
- GI50 (SNB-19): 44.4 µM (inactive)
- GI50 (SNB-75): 39.9 µM (inactive)
- GI50 (SR): 31.3 µM (inactive)
- GI50 (SW-620): 25.8 µM (inactive)
- GI50 (T47D): 16.9 µM (inactive)
- GI50 (TK-10): 40.9 µM (inactive)
- GI50 (U-251): 22.6 µM (inactive)
- GI50 (UACC-257): 39.5 µM (inactive)
- GI50 (UACC-62): 19.9 µM (inactive)
- GI50 (UO-31): 24.4 µM (inactive)

From ChEMBL document CHEMBL1201862, “PubChem BioAssay data set” (2004)
